The text below walks through data of ChEMBL document CHEMBL1933051, “Cytotoxic bistetrahydrofuran annonaceous acetogenins from the seeds of Annona squamosa” (J Nat Prod, 2011).

Structures are written as SMILES. In brackets after ≈: the same amount, converted by molar mass.

Usually IC50 stands for the concentration at which inhibition is half-maximal. A higher IC50 goes with a need for much substance.

What all share (format): functional, cell-based
The subject of one experiment is HeLa. Briefly: Cytotoxicity against human HeLa cells by MTT assay.
Another experiment concerns SMMC-7721. Briefly: Cytotoxicity against human SMMC7721 cells by MTT assay. (In general: Tetrazolium assays rely on reduction of a dye to a coloured formazan, in cell work by metabolically active cells.)
For the next experiment, the system named is A549. Briefly: Cytotoxicity against human A549 cells by MTT assay.
In a further experiment the test system is MKN-45. Briefly: Cytotoxicity against human MKN45 cells by MTT assay.
The test system of a further experiment is HepG2. Briefly: Cytotoxicity against human HepG2 cells by MTT assay.
The next experiment has as its system MCF7. Briefly: Cytotoxicity against human MCF7 cells by MTT assay.

With `CCCCCCCCCC[C@H](O)[C@@H]1CC[C@@H]([C@H](O)CC[C@@H](O)[C@@H]2CC[C@@H](CCCCCCCCCC3=C[C@@H](C)OC3=O)O2)O1` [Squamostatin-D], the IC50 with HeLa was found to be 0.1 µg/mL (≈ 0.161 µM); in the experiment with SMMC-7721, 0.25 µg/mL (≈ 0.401 µM); in the experiment with A549, 0.046 µg/mL (≈ 0.0738 µM); in the experiment on MKN-45, 0.87 µg/mL (≈ 1.4 µM); in the experiment with HepG2, 0.56 µg/mL (≈ 0.899 µM); with MCF7, 0.11 µg/mL (≈ 0.177 µM).
As for `CCCCCCCCCCCC(O)CCC[C@H](O)[C@H]1CC[C@H]([C@H]2CC[C@H]([C@H](O)CCCCCCCC3=C[C@H](C)OC3=O)O2)O1` (relative stereo), the IC50 in the experiment on HeLa amounted to 0.025 µg/mL (≈ 0.0401 µM); with SMMC-7721, 0.057 µg/mL (≈ 0.0915 µM); with A549 it was 0.012 µg/mL (≈ 0.0193 µM); in the experiment with MKN-45, 0.042 µg/mL (≈ 0.0674 µM); with HepG2, 0.022 µg/mL (≈ 0.0353 µM); in the experiment with MCF7, 0.052 µg/mL (≈ 0.0835 µM).
Consider `CCCCCCCCCC[C@@H](O)[C@H]1CC[C@H]([C@H]2CC[C@H]([C@H](O)CCCCCCCCC[C@H](O)CCC3=C[C@H](C)OC3=O)O2)O1` [UVARIGRANDIN A], for which the IC50 was 0.07 µg/mL (≈ 0.112 µM) in the experiment with HeLa; 0.0029 µg/mL (≈ 0.00466 µM) in the experiment with SMMC-7721; 0.08 µg/mL (≈ 0.128 µM) in the experiment with A549; 0.069 µg/mL (≈ 0.111 µM) with MKN-45; 0.78 µg/mL (≈ 1.25 µM) in the experiment with HepG2; 0.096 µg/mL (≈ 0.154 µM) in the experiment with MCF7.
In the case of `CCCC[C@H](O)[C@H](O)[C@@H]1CC[C@@H]([C@H](O)CC[C@H](O)[C@@H]2CC[C@@H](CCCCCCCCCCCCCCC3=C[C@H](C)OC3=O)O2)O1` (relative stereo), the IC50 is 0.57 µg/mL (≈ 0.892 µM) with HeLa; 0.11 µg/mL (≈ 0.172 µM) in the experiment on SMMC-7721; 0.31 µg/mL (≈ 0.485 µM) in the experiment with A549; 0.14 µg/mL (≈ 0.219 µM) in the experiment with MKN-45; 0.17 µg/mL (≈ 0.266 µM) with HepG2; 0.5 µg/mL (≈ 0.783 µM) in the experiment with MCF7.
For `O=c1[nH]cc(F)c(=O)[nH]1` [FLUOROURACIL], the IC50 in the experiment with HeLa worked out at 0.14 µg/mL (≈ 1.08 µM); with SMMC-7721, 0.023 µg/mL (≈ 0.177 µM); in the experiment with A549, 0.32 µg/mL (≈ 2.46 µM); with MKN-45, 0.36 µg/mL (≈ 2.77 µM); in the experiment on HepG2, 0.0082 µg/mL (≈ 0.063 µM); in the experiment with MCF7, 0.22 µg/mL (≈ 1.69 µM).
As to `CCCCCCCCCC[C@@H](O)[C@@H]1CC[C@@H]([C@@H]2CC[C@@H]([C@H](O)CCCCCCCCCC(O)CC3=CC(C)OC3=O)O2)O1` (stereo partly drawn) [BULLATACIN], the IC50 stood at 0.034 µg/mL (≈ 0.0558 µM) in the experiment with HeLa; 0.0048 µg/mL (≈ 0.00788 µM) with SMMC-7721; 0.033 µg/mL (≈ 0.0542 µM) with A549; 0.053 µg/mL (≈ 0.087 µM) with MKN-45; 0.032 µg/mL (≈ 0.0526 µM) in the experiment on HepG2; 0.043 µg/mL (≈ 0.0706 µM) in the experiment with MCF7.
As for `CCCCCC[C@@H](O)CCC[C@H](O)[C@@H]1CC[C@@H]([C@H](O)CC[C@@H](O)[C@@H]2CC[C@@H](CCCCCCCCCC3=C[C@@H](C)OC3=O)O2)O1` [Squamostatin-A], the IC50 in the experiment with HeLa was 0.45 µg/mL (≈ 0.704 µM); in the experiment on SMMC-7721, 0.49 µg/mL (≈ 0.767 µM); in the experiment with A549, 0.21 µg/mL (≈ 0.329 µM); in the experiment with MKN-45, 0.93 µg/mL (≈ 1.46 µM); in the experiment with HepG2, 0.83 µg/mL (≈ 1.3 µM); in the experiment on MCF7, 0.15 µg/mL (≈ 0.235 µM).
Take `CCCCC[C@H](O)[C@@H]1CC[C@@H]([C@H](O)CC[C@H](O)[C@@H]2CC[C@@H](CCCCCCCCCCCC[C@@H](O)CC3=C[C@H](C)OC3=O)O2)O1` (relative stereo): the IC50 in the experiment on HeLa was 1.5 µg/mL (≈ 2.35 µM); in the experiment on SMMC-7721, 0.39 µg/mL (≈ 0.61 µM); in the experiment with A549 it was 0.68 µg/mL (≈ 1.06 µM); in the experiment on MKN-45 it was 0.59 µg/mL (≈ 0.923 µM); with HepG2, 0.8 µg/mL (≈ 1.25 µM); in the experiment with MCF7, 0.75 µg/mL (≈ 1.17 µM).
